Values joined by “and” are separate entries in the source; they are usually repeats but may differ in a detail not shown here. Equal entries are not always repeated. Where two headings read alike, the source gives them in different places.
Experiments:
caspase-3 = test: Active caspase-3 level immunoassay; format: cell-based, human; conditions: for Caspase 3: level of active caspase-3, control 53.2
Description: Cover and incubate for 2 h at room temperature. […] Incubate for 1 h then add 100 µL anti-rabbit IgG HRP working solution to each well and incubate for 30 min. The absorbance of each well was measured at 450 nm.

MDA-MB-231 cell line = test: Cell cycle distribution analysis (propidium iodide, DNA cytometer); format: cell-based, human; conditions: MDA-MB-231 cells treated at IC50; for %Apoptosis: PreG1, control 0.97; for %G2-M: control 6.44; for %S: control 23.04; for %G0-G1: control 69.55
Description: Control cells with known DNA content (peripheral blood mononuclear cells) were used as a reference point for determining the DNA index for the test samples. The cells were stained with propidium iodide stain following the procedure provided by the kit then incubated at room temperature for 5 min in the dark and run on the DNA cytometer. Cell cycle distribution was calculated using […] software (Becton Dickinson Immunocytometry Systems, San Jose, CA, USA).

[1] = MTT cytotoxicity against normal breast cells; format: cell-based; conditions: human, 184A1 normal breast cells; MTT assay
Description: MDA-MB-231 breast cancer cells and 184A1 normal breast cells of American Type Culture Collection were obtained from VACSERA, Egypt. Cells were cultured using Dulbecco’s Modified Eagle’s Medium (Invitrogen/Life Technologies) supplemented with 10% FBS (Hyclone), 10 µg/mL of insulin, and 1% penicillin–streptomycin. Cells were seeded in 96-well plate with cells density 1.2–1.8 × 10,000 cells/well, in a volume of 100 µL complete growth medium + 100 µL of the tested compound per well and the plate was incubated for 24 h before the MTT assay. The cell layer was rinsed with 0.25% (w/v) trypsin, 0.53 mM EDTA solution, incubated for 2 h, then the absorbance was measured at a wavelength of 570 nm[30]. IC50 was calculated according to the equation of Boltzmann sigmoidal concentration-response curve using Graph Pad Prism 5.

[2] = test system: MDA-MB-231 breast cancer cells; test: MTT cytotoxicity assay against MDA-MB-231; format: cell-based; conditions: Homo sapiens, mean ± SE of three independent experiments
Description: Cells were cultured using Dulbecco’s Modified Eagle’s Medium (Invitrogen/Life Technologies) supplemented with 10% FBS (Hyclone), 10 µg/mL of insulin, and 1% penicillin–streptomycin. Cells were seeded in 96-well plate with cells density 1.2–1.8 × 10,000 cells/well, in a volume of 100 µL complete growth medium + 100 µL of the tested compound per well and the plate was incubated for 24 h before the MTT assay. […] IC50 was calculated according to the equation of Boltzmann sigmoidal concentration-response curve using Graph Pad Prism 5.

EGFR = target: T1, EGFR (Homo sapiens, UniProt P00533); test: In vitro enzymatic activity assay, EGFR kinase kit; format: biochemical; conditions: for % Inhibition of EGFR: concentration not given; for IC50: mean ± SE of three independent experiments
T1 construct: purchased Invitrogen PV3872
Description: (§1) EGFR and HER2 kinase kits were purchased from Invitrogen. […] ATP solution and a kinase/peptide mixture were prepared. The plate was incubated for 1 h at room temperature. About […] of the developing solution was added to each well. The plate was incubated for 1 h and then read by ELISA Reader (PerkinElmer, USA). Every experiment was repeated three times. Data represented as means ± SE from three independent experiments. Curve fitting was performed using Graph Pad Prism 5.

HER2 = target: T2, HER2 (Homo sapiens, UniProt P04626); test: In vitro enzymatic activity assay, HER2 kinase kit; format: biochemical; conditions: mean ± SE of three independent experiments
T2 construct: purchased Invitrogen PV3366
Description: as §1

Bax = Bax expression level; format: cell-based, human; conditions: MDA-MB-231 cells, compared to the control cells
Bcl2 = Bcl2 expression level; format: cell-based, human; conditions: MDA-MB-231 cells, compared to the control cells
MDA-MB-231 cells = test: Radiosensitizing activity (MTT with 8 Gy gamma irradiation); format: cell-based; conditions: Homo sapiens, light or radiation study
Description: Irradiation was performed at the National Center for Radiation Research and Technology (NCRRT), Egyptian Atomic Energy Authority (EAEA), using gamma cell-40 (^137Cs) source. Compound 10 was selected to be re-evaluated for the in vitro antiproliferative activity in combination with γ-irradiation using MTT assay. Cells were incubated with compound 10 in molar concentrations of 0.01, 0.1, 1.0, and 10 µM. After 2 h, cells were subjected to a single dose of 8 Gy of γ-radiation at a dose rate of 0.758 rad/s for 17.73 min, and then the anti-proliferative activity was measured 48 h after irradiation. The IC50 of the tested compounds was calculated after irradiation.

T1 sequence (P00533 25-1210): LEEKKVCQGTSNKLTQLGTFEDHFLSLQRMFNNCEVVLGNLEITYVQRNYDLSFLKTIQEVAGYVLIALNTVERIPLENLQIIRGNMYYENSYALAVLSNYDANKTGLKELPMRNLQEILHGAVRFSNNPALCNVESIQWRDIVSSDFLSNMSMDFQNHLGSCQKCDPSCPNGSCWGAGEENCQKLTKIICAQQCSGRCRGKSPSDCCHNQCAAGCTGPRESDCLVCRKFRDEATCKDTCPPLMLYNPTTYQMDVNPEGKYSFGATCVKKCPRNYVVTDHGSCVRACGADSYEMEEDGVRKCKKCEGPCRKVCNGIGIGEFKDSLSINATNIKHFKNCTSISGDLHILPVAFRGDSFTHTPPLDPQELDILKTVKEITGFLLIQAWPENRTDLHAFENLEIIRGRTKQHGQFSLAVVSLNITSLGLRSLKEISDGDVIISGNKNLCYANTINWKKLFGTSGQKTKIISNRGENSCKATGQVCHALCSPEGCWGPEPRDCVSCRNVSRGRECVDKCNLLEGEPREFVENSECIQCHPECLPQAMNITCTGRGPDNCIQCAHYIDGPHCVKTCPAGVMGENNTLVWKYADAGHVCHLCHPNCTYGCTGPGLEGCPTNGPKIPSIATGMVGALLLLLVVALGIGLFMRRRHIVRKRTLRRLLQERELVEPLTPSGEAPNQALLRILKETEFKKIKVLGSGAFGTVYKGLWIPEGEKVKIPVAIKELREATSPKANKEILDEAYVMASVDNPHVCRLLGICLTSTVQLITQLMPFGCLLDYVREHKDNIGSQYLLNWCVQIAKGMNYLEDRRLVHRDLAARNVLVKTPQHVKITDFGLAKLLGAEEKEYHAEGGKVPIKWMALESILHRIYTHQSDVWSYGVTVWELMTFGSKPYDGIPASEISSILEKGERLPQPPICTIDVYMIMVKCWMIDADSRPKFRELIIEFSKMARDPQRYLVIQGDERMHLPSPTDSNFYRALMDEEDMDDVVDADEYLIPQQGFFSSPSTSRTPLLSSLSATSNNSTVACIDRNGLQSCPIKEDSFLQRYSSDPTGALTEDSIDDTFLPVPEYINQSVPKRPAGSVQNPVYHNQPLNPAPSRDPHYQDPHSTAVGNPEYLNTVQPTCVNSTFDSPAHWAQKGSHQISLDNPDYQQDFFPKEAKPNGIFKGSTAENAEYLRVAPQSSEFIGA
T2 sequence (P04626 23-1255): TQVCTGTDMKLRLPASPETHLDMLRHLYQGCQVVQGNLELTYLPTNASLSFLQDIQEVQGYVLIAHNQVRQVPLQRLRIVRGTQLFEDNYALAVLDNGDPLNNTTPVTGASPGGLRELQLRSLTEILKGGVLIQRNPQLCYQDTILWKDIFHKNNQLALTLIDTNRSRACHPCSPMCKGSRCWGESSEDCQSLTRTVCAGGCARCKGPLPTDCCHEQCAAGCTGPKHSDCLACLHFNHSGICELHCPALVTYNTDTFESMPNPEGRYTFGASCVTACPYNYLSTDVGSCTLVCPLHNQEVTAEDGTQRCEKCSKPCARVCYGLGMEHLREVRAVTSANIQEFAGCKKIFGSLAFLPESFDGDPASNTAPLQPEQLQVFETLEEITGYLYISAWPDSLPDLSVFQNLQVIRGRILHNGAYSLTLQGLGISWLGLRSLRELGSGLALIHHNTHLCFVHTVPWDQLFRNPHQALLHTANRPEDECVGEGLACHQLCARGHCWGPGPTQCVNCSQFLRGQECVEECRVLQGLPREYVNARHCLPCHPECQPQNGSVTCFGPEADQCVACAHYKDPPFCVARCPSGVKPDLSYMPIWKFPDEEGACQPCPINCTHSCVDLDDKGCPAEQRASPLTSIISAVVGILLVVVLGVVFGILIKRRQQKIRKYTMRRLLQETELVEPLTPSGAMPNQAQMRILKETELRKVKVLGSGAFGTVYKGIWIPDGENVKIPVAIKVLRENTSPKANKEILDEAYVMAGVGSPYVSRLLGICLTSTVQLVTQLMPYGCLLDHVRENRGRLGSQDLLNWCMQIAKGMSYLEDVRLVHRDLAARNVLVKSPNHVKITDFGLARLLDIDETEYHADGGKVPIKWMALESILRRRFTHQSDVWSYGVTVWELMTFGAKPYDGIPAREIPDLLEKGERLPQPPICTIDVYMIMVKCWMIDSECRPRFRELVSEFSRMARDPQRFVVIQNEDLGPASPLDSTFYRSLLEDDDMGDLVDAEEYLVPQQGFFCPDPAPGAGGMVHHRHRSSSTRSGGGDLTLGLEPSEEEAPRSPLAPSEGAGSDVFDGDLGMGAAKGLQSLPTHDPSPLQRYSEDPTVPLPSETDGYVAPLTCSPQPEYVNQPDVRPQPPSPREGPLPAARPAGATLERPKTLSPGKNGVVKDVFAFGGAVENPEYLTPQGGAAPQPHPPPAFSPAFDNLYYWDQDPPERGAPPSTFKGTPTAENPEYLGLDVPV

Row | SMILES | % Inhibition of EGFR (EGFR) | melting point | IC50 (EGFR) | IC50 (HER2) | IC50 [2] | other results
1 | C#Cc1cccc(Nc2ncnc3cc(OCCOC)c(OCCOC)cc23)c1 [Erlotinib, N-(3-ethynylphenyl)-6,7-bis(2-methoxyethoxy)quinazolin-4-amine, reference compound] | – | – | – | – | – | Caspase 3 (caspase-3): 480.1 pg/mL; %Apoptosis (MDA-MB-231 cell line): 17.33%; %G2-M (MDA-MB-231 cell line): 24.81%; %S (MDA-MB-231 cell line): 16.31%; %G0-G1 (MDA-MB-231 cell line): 41.55%; IC50 at 24 h [1]: 102 ± 3.55 µM
2 | NS(=O)(=O)c1ccc(-n2c(SCC(=O)Nc3ccc4c(c3)C(=O)c3ccccc3C4=O)nc3cc4ccccc4cc3c2=O)cc1 [Compound 18, N-(9,10-Dioxo-9,10-dihydroanthracen-2-yl)-2-[(4-oxo-3-(4-sulfamoylphenyl)-3,4-dihydrobenzo[g]quinazolin-2-yl)thio]acetamide] | – | 256.7 °C | 9.66 ± 0.08 µM | 3.2 ± 0.04 µM | 0.26 ± 0.01 µM | –
3 | Cn1c(NC(=O)CSc2nc3cc4ccccc4cc3c(=O)n2-c2ccc(S(N)(=O)=O)cc2)cc(=O)n(C)c1=O [Compound 15, N-(1,3-Dimethyl-2,6-dioxo-1,2,3,6-tetrahydropyrimidin-4-yl)-2-[(4-oxo-3-(4-sulfamoylphenyl)-3,4-dihydrobenzo[g]quinazolin-2-yl)thio]acetamide] | 21.45% | 307.7 °C | – | – | 21.8 ± 1.63 µM | –
4 | Cc1ccc(NC(=O)CSc2nc3cc4ccccc4cc3c(=O)n2-c2ccc(S(N)(=O)=O)cc2)cc1C [Compound 10, N-(3,4-Dimethylphenyl)-2-[(4-oxo-3-(4-sulfamoylphenyl)-3,4-dihydrobenzo[g]quinazolin-2-yl)thio]acetamide] | – | 232.8 °C | 3.9 ± 0.03 µM | 5.4 ± 0.12 µM | 0.31 ± 0.01 µM | Caspase 3 Folds (caspase-3; increase compared to the control cells): 10 Folds and 10.25 Folds; Caspase 3 (caspase-3): 545.7 pg/mL; Bax (Folds) (Bax): 9 Folds and 9.372 Folds; Bcl2 (Folds) (Bcl2): 0.14 Folds and 0.1379 Folds; %Apoptosis (MDA-MB-231 cell line): 14.84%; %G2-M (MDA-MB-231 cell line): 17.52%; %S (MDA-MB-231 cell line): 18.28%; %G0-G1 (MDA-MB-231 cell line): 49.36%; IC50 at 24 h [1]: 84.5 ± 0.72 µM; IC50 (MDA-MB-231 cells; no irradiation, read-out: IC50 before Irradiation): 0.31 ± 0.01 µM; IC50 (MDA-MB-231 cells; single dose of 8 Gy γ-radiation, measured 48 h after irradiation, read-out: IC50 after Irradiation): 0.22 ± 0.03 µM
5 | Cc1cc([N+](=O)[O-])ccc1NC(=O)CSc1nc2cc3ccccc3cc2c(=O)n1-c1ccc(S(N)(=O)=O)cc1 [Compound 13, N-(2-Methyl-4-nitrophenyl)-2-[(4-oxo-3-(4-sulfamoylphenyl)-3,4-dihydrobenzo[g]quinazolin-2-yl)thio]acetamide] | – | 293.8 °C | 10.2 ± 0.1 µM | 13.01 ± 0.09 µM | 0.4 ± 0.01 µM | –
6 | NS(=O)(=O)c1ccc(-n2c(SCC(=O)Nc3nc4ccc([N+](=O)[O-])cc4s3)nc3cc4ccccc4cc3c2=O)cc1 [Compound 8, N-(6-Nitrobenzo[d]thiazol-2-yl)-2-[(4-oxo-3-(4-sulfamoylphenyl)-3,4-dihydrobenzo[g]quinazolin-2-yl)thio]acetamide] | 54.61% | 278.3 °C | – | – | 2.91 ± 0.03 µM | –
7 | NS(=O)(=O)c1ccc(-n2c(SCC(=O)Nc3cccc4ccccc34)nc3cc4ccccc4cc3c2=O)cc1 [Compound 17, N-(Naphthalene-1-yl)-2-[(4-oxo-3-(4-sulfamoylphenyl)-3,4-dihydrobenzo[g]quinazolin-2-yl)thio]acetamide] | 8.71% | 241.6 °C | – | – | 161 ± 4.69 µM | –

Further lines, with some results ahead:

Row | % Inhibition of EGFR (EGFR) | melting point | IC50 (EGFR) | IC50 (HER2) | SMILES | IC50 [2] | other results
8 | 59.66% | 205.7 °C | – | – | NS(=O)(=O)c1ccc(-n2c(SCC(=O)Nc3cnccn3)nc3cc4ccccc4cc3c2=O)cc1 [Compound 16, 2-[(4-Oxo-3-(4-sulfamoylphenyl)-3,4-dihydrobenzo[g]quinazolin-2-yl)thio]-N-(pyrazin-2-yl)acetamide] | 0.32 ± 0.01 µM | –
9 | – | 280 °C | 4.11 ± 0.02 µM | 26.03 ± 0.22 µM | NS(=O)(=O)c1ccc(-n2c(SCC(=O)Nc3c[nH]c(=O)[nH]c3=O)nc3cc4ccccc4cc3c2=O)cc1 [Compound 14, N-(2,4-Dioxo-1,2,3,4-tetrahydropyrimidin-5-yl)-2-[(4-oxo-3-(4-sulfamoylphenyl)-3,4-dihydrobenzo[g]quinazolin-2-yl)thio]acetamide] | 0.37 ± 0.01 µM | –
10 | 25.98% | 255.9 °C | – | – | CCOc1ccc2nc(NC(=O)CSc3nc4cc5ccccc5cc4c(=O)n3-c3ccc(S(N)(=O)=O)cc3)sc2c1 [Compound 7, N-(6-Ethoxybenzo[d]thiazol-2-yl)-2-[(4-oxo-3-(4-sulfamoylphenyl)-3,4-dihydrobenzo[g]quinazolin-2-yl)thio]acetamide] | 26.5 ± 2.14 µM | –
11 | 41.86% | 300.5 °C | – | – | Cc1cccc(C)c1NC(=O)CSc1nc2cc3ccccc3cc2c(=O)n1-c1ccc(S(N)(=O)=O)cc1 [Compound 12, N-(2,6-Dimethylphenyl)-2-[(4-oxo-3-(4-sulfamoylphenyl)-3,4-dihydrobenzo[g]quinazolin-2-yl)thio]acetamide] | 2.19 ± 0.09 µM | –
12 | 42.00% | 292.4 °C | – | – | Cc1cc(NC(=O)CSc2nc3cc4ccccc4cc3c(=O)n2-c2ccc(S(N)(=O)=O)cc2)no1 [Compound 5, N-(5-Methylisoxazol-3-yl)-2-[(4-oxo-3–(4-sulfamoylphenyl)-3,4-dihydrobenzo[g]quinazolin-2-yl)thio]acetamide] | 2.47 ± 0.08 µM | –
13 | – | 279.3 °C | 2.55 ± 0.17 µM | 31.31 ± 0.31 µM | Cc1ccc(C)c(NC(=O)CSc2nc3cc4ccccc4cc3c(=O)n2-c2ccc(S(N)(=O)=O)cc2)c1 [Compound 11, N-(2,5-Dimethylphenyl)-2-[(4-oxo-3-(4-sulfamoylphenyl)-3,4-dihydrobenzo[g]quinazolin-2-yl)thio]acetamide] | 0.28 ± 0.01 µM | –
14 | 52.49% | 257 °C | – | – | NS(=O)(=O)c1ccc(-n2c(SCC(=O)Nc3nnc(C(F)(F)F)s3)nc3cc4ccccc4cc3c2=O)cc1 [Compound 9, 2-[(4-Oxo-3-(4-sulfamoylphenyl)-3,4-dihydrobenzo[g]quinazolin-2-yl)thio]-N-(5-(trifluoromethyl)-1,3,4-thiadiazol-2-yl)acetamide] | 2.19 ± 0.05 µM | –
15 | 18.13% | 304 °C | – | – | NS(=O)(=O)c1ccc(-n2c(SCC(=O)Nc3nccs3)nc3cc4ccccc4cc3c2=O)cc1 [Compound 6, 2-[(4-Oxo-3-(4-sulfamoylphenyl)-3,4-dihydrobenzo[g]quinazolin-2-yl)thio]-N-(thiazol-2-yl)acetamide] | 23.2 ± 1.88 µM | –
